Target: BRAF^V600E protein (Homo sapiens, UniProt P15056, V600E)
Assay: HiBiT cellular BRAF V600E degradation assay
Format: cell-based
Details: 24 h incubation; for DC50: A375.10 cells (HiBiT tag knocked in at N-terminal of BRAF V600E), concentration at which 50% of total cellular BRAF V600E is degraded; for Emax / HiBit 24 h Emax: A375.10 cells, Emax = amount of residual protein remaining in the cell after compound treatment; for Emax: read-out: HiBit 24 h Emax

Chain of BRAF^V600E protein (P15056 whole entry V600E): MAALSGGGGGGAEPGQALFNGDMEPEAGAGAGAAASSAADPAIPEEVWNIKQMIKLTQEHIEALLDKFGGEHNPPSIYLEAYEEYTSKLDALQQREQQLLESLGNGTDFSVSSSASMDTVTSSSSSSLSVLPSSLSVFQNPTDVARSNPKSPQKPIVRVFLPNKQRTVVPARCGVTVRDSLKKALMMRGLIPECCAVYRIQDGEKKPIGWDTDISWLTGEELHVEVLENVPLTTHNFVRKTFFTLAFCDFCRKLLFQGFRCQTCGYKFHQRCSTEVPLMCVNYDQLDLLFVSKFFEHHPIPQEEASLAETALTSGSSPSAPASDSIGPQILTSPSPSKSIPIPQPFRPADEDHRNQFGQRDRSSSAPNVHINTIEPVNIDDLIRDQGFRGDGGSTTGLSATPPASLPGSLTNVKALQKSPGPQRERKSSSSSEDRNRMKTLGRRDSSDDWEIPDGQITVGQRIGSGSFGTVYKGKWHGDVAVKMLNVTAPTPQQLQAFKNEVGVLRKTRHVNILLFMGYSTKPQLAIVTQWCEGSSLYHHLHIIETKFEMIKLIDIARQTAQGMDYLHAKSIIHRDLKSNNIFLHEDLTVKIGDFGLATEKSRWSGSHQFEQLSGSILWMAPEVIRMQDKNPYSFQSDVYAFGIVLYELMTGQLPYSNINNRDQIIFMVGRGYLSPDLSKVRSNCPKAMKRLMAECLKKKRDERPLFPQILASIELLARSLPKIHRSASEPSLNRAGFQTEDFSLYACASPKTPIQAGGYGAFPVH

Compound | DC50 [nM] | Emax [%] | HiBit 24 h Emax [%]
CCN(C)S(=O)(=O)Nc1ccc(F)c(C(=O)c2c[nH]c3ncc(-c4ccc(N5CCN(C(=O)CC6(O)CCN(c7ccc(NC8CCC(=O)NC8=O)cc7F)CC6)CC5)c(F)c4)cc23)c1F (stereo not drawn) [Example 198, 5-[4-[4-[2-[1-[4-[(2,6-dioxo-3-piperidyl)amino]-2-fluoro-phenyl]-4-hydroxy-4-piperidyl]acetyl]piperazin-1-yl]-3-fluoro-phenyl]-3-[3-[[ethyl(methyl)sulfamoyl]amino]-2,6-difluoro-benzoyl]-1H-pyrrolo[2,3-b]pyridine] | 2.42 | 6.19 | 
CCN(C)S(=O)(=O)Nc1ccc(F)c(C(=O)c2c[nH]c3ncc(-c4cnc(N5CCN(C(=O)CC6(O)CCN(c7ccc(NC8CCC(=O)NC8=O)cc7F)CC6)CC5)cn4)cc23)c1F (stereo not drawn) [Example 187, 5-[5-[4-[2-[1-[4-[(2,6-dioxo-3-piperidyl)amino]-2-fluoro-phenyl]-4-hydroxy-4-piperidyl]acetyl]piperazin-1-yl]pyrazin-2-yl]-3-[3-[[ethyl(methyl)sulfamoyl]amino]-2,6-difluoro-benzoyl]-1H-pyrrolo[2,3-b]pyridine] | 3.6 | 7.8 | 
CC(C)S(=O)(=O)Nc1ccc(F)c(C(=O)c2c[nH]c3ncc(-c4ccc(N5CCN(C(=O)CN6CCC(c7ccc(NC8CCC(=O)NC8=O)cc7)CC6)CC5)nc4)cc23)c1F (stereo not drawn) [Example 11, N-[3-[5-[6-[4-[2-[4-[4-[(2,6-dioxo-3-piperidyl)amino]phenyl]-1-piperidyl]acetyl]piperazin-1-yl]-3-pyridyl]-1H-pyrrolo[2,3-b]pyridine-3-carbonyl]-2,4-difluoro-phenyl]propane-2-sulfonamide] | 5.08 | 7.97 | 
CCN(C)S(=O)(=O)Nc1ccc(F)c(C(=O)c2c[nH]c3ncc(-c4ccc(CN5CCN(C(=O)CN6CCC(c7ccc(NC8CCC(=O)NC8=O)cc7)CC6)CC5)nc4)cc23)c1F (stereo not drawn) [Example A9, 5-[6-[[4-[2-[4-[4-[(2,6-Dioxopiperidin-3-yl)amino]phenyl]piperidin-1-yl]acetyl]piperazin-1-yl]methyl]pyridin-3-yl]-3-[3-[[ethyl(methyl)sulfamoyl]amino]-2,6-difluorobenzoyl]-1H-pyrrolo[2,3-b]pyridine] | 30 | 14 | 
CCN(C)S(=O)(=O)Nc1ccc(F)c(C(=O)c2c[nH]c3ncc(-c4cnc(N5CCN(C(=O)CN6CCC(c7ccc(N8CCC(=O)NC8=O)cc7)CC6)CC5)nc4)cc23)c1F [Example 24, 5-[2-[4-[2-[4-[4-(2,4-dioxohexahydropyrimidin-1-yl)phenyl]-1-piperidyl]acetyl]piperazin-1-yl]pyrimidin-5-yl]-3-[3-[[ethyl(methyl)sulfamoyl]amino]-2,6-difluoro-benzoyl]-1H-pyrrolo[2,3-b]pyridine] | 5.59 |  | 7.88
CCN(C)S(=O)(=O)Nc1ccc(F)c(C(=O)c2c[nH]c3ncc(-c4ccc(CN5CCN(CC(=O)N6CCC(c7ccc(NC8CCC(=O)NC8=O)cc7)CC6)CC5)cc4)cc23)c1F.O=C(O)C(F)(F)F (stereo not drawn) [Example A21, 5-[4-[[4-[2-[4-[4-[(2,6-Dioxopiperidin-3-yl)amino]phenyl]piperidin-1-yl]-2-oxoethyl]piperazin-1-yl]methyl]phenyl]-3-[3-[[ethyl(methyl)sulfamoyl]amino]-2,6-difluorobenzoyl]-1H-pyrrolo[2,3-b]pyridine;2,2,2-trifluoroacetic acid] | 21 |  | 13
CCN(C)S(=O)(=O)Nc1ccc(F)c(C(=O)c2c[nH]c3ncc(-c4ccc(N5CCN(C(=O)CN6CCC(c7ccc(NC89CC(C8)C(=O)NC9=O)cc7)CC6)CC5)nc4)cc23)c1F [Example A47, 5-[6-[4-[2-[4-[4-[(2,4-Dioxo-3-azabicyclo[3.1.1]heptan-1-yl)amino]phenyl]piperidin-1-yl]acetyl]piperazin-1-yl]pyridin-3-yl]-3-[3-[[ethyl(methyl)sulfamoyl]amino]-2,6-difluorobenzoyl]-1H-pyrrolo[2,3-b]pyridine] | 3.86 | 10.7 | 
CCN(C)S(=O)(=O)Nc1cccc(C(=O)c2c[nH]c3ncc(-c4cnc(N5CCN(C(=O)CC6CCN(c7ccc(NC8CCC(=O)NC8=O)cc7F)CC6)CC5)nc4)cc23)c1F (stereo not drawn) [Example 98, 5-[2-[4-[2-[1-[4-[(2,6-dioxo-3-piperidyl)amino]-2-fluoro-phenyl]-4-piperidyl]acetyl]piperazin-1-yl]pyrimidin-5-yl]-3-[3-[[ethyl(methyl)sulfamoyl]amino]-2-fluoro-benzoyl]-1H-pyrrolo[2,3-b]pyridine] | 4.67 | 7.42 | 
CCN(C)S(=O)(=O)Nc1ccc(F)c(C(=O)c2c[nH]c3ncc(-c4ccc(N5CCN(C(=O)CC6(O)CCN(c7ccc(NC8CCC(=O)NC8=O)cc7F)CC6)CC5)c(C)c4)cc23)c1F (stereo not drawn) [Example 192, 5-[4-[4-[2-[1-[4-[(2,6-dioxo-3-piperidyl)amino]-2-fluoro-phenyl]-4-hydroxy-4-piperidyl]acetyl]piperazin-1-yl]-3-methyl-phenyl]-3-[3-[[ethyl(methyl)sulfamoyl]amino]-2,6-difluoro-benzoyl]-1H-pyrrolo[2,3-b]pyridine] | 13.9 | 8.18 | 
CCN(C)S(=O)(=O)Nc1ccc(F)c(C(=O)c2c[nH]c3ncc(-c4cnc(N5CCN(C(=O)CN6CCC(c7ccc(NC8CCC(=O)NC8=O)cn7)CC6)CC5)nc4)cc23)c1F (stereo not drawn) [Example A69, 5-[2-[4-[2-[4-[5-[(2,6-Dioxopiperidin-3-yl)amino]pyridin-2-yl]piperidin-1-yl]acetyl]piperazin-1-yl]pyrimidin-5-yl]-3-[3-[[ethyl(methyl)sulfamoyl]amino]-2,6-difluorobenzoyl]-1H-pyrrolo[2,3-b]pyridine] | 7 |  | 12
CCN(C)S(=O)(=O)Nc1ccc(F)c(C(=O)c2c[nH]c3ncc(-c4ccc(N5CCN(C(=O)CN6CCC(c7ccc(OC8CCC(=O)NC8=O)cn7)CC6)CC5)nc4)cc23)c1F (stereo not drawn) [Example A45, 5-[6-[4-[2-[4-[5-(2,6-Dioxopiperidin-3-yl)oxypyridin-2-yl]piperidin-1-yl]acetyl]piperazin-1-yl]pyridin-3-yl]-3-[3-[[ethyl(methyl)sulfamoyl]amino]-2,6-difluorobenzoyl]-1H-pyrrolo[2,3-b]pyridine] | 65 | 21 | 
CCN(C)S(=O)(=O)Nc1ccc(F)c(C(=O)c2c[nH]c3ncc(-c4cnc(N5CCC(OCC6CCN(c7ccc(NC8CCC(=O)NC8=O)cc7F)CC6)CC5)nc4)cc23)c1F (stereo not drawn) [Example 182, 5-[2-[4-[[1-[4-[(2,6-dioxo-3-piperidyl)amino]-2-fluoro-phenyl]-4-piperidyl]methoxy]-1-piperidyl]pyrimidin-5-yl]-3-[3-[[ethyl(methyl)sulfamoyl]amino]-2,6-difluoro-benzoyl]-1H-pyrrolo[2,3-b]pyridine] | 17.9 | 7.7 | 
CCN(C)S(=O)(=O)Nc1cccc(C(=O)c2c[nH]c3ncc(-c4cnc(N5CCN(C(=O)CC6(O)CCN(c7ccc(NC8CCC(=O)NC8=O)cc7)CC6)CC5)nc4)cc23)c1F (stereo not drawn) [Example 99, 5-[2-[4-[2-[1-[4-[(2,6-dioxo-3-piperidyl)amino]phenyl]-4-hydroxy-4-piperidyl]acetyl]piperazin-1-yl]pyrimidin-5-yl]-3-[3-[[ethyl(methyl)sulfamoyl]amino]-2-fluoro-benzoyl]-1H-pyrrolo[2,3-b]pyridine] | 9.55 | 13.2 | 
CCN(C)S(=O)(=O)Nc1cccc(C(=O)c2c[nH]c3ncc(-c4ccc(N5CCN(C(=O)CC6CCN(c7ccc(NC8CCC(=O)NC8=O)cc7F)CC6)CC5)nc4)cc23)c1F (stereo not drawn) [Example 111, 5-[6-[4-[2-[1-[4-[(2,6-dioxo-3-piperidyl)amino]-2-fluoro-phenyl]-4-piperidyl]acetyl]piperazin-1-yl]-3-pyridyl]-3-[3-[[ethyl(methyl)sulfamoyl]amino]-2-fluoro-benzoyl]-1H-pyrrolo[2,3-b]pyridine] | 9.66 | 15.6 | 
CCN(C)S(=O)(=O)Nc1ccc(F)c(C(=O)c2c[nH]c3ncc(-c4cnc(N5CC[C@H](C(=O)N6CCC(c7ccc(NC8CCC(=O)NC8=O)cc7)CC6)C5)nc4)cc23)c1F (stereo partly drawn) [Example 130, 5-[2-[(3S)-3-[4-[4-[(2,6-dioxo-3-piperidyl)amino]phenyl]piperidine-1-carbonyl]pyrrolidin-1-yl]pyrimidin-5-yl]-3-[3-[[ethyl(methyl)sulfamoyl]amino]-2,6-difluoro-benzoyl]-1H-pyrrolo[2,3-b]pyridine] | 9.73 | 12.9 | 
CCN(C)S(=O)(=O)Nc1ccc(F)c(C(=O)c2c[nH]c3ncc(-c4cnc(N5CCN(C(=O)CN6CCC(c7ccc(NC89CC(C8)C(=O)NC9=O)cc7)CC6)CC5)nc4)cc23)c1F [Example A87, 5-[2-[4-[2-[4-[4-[(2,4-Dioxo-3-azabicyclo[3.1.1]heptan-1-yl)amino]phenyl]piperidin-1-yl]acetyl]piperazin-1-yl]pyrimidin-5-yl]-3-[3-[[ethyl(methyl)sulfamoyl]amino]2,6-difluorobenzoyl]-1H-pyrrolo[2,3-b]pyridine; formic acid] | 6 | 7 | 
O=C1CCN(c2cccc(C3CCN(CC(=O)N4CCN(c5ccc(-c6cnc7[nH]cc(C(=O)c8c(F)ccc(NS(=O)(=O)N9CCCC9)c8F)c7c6)cc5)CC4)CC3)c2)C(=O)N1 [Example A88, N-[3-[5-[4-[4-[2-[4-[3-(2,4-Dioxo-1,3-diazinan-1-yl)phenyl]piperidin-1-yl]acetyl]piperazin-1-yl]phenyl]-1H-pyrrolo[2,3-b]pyridine-3-carbonyl]-2,4-difluorophenyl]pyrrolidine-1-sulfonamide] | 52 | 26 | 
CCN(C)S(=O)(=O)Nc1ccc(F)c(C(=O)c2c[nH]c3ncc(-c4ccc(CN5CCN(CC(=O)N6CCC(c7ccc(NC8CCC(=O)NC8=O)cc7)CC6)CC5)cc4)cc23)c1F (stereo not drawn) [Example 94, 5-[4-[[4-[2-[4-[4-[(2,6-dioxo-3-piperidyl)amino]phenyl]-1-piperidyl]-2-oxo-ethyl]piperazin-1-yl]methyl]phenyl]-3-[3-[[ethyl(methyl)sulfamoyl]amino]-2,6-difluoro-benzoyl]-1H-pyrrolo[2,3-b]pyridine] | 21.2 | 12.8 | 

Source: patent publication US12559492B2, “BRAF degraders” (C4 Therapeutics, Inc., priority 2020, dated 2026)
